Experimental data as given in US20090045056A1, “Stable three enzyme creatinine biosensor” (priority 2004, published 2009).

What was measured:
[1] = biological target: T1, sarcosine oxidase (Bacillus sp., UniProt P40859); details: cited from earlier work; for Ki: inhibitor of sarcosine oxidase
T1 sequence (P40859 1-390): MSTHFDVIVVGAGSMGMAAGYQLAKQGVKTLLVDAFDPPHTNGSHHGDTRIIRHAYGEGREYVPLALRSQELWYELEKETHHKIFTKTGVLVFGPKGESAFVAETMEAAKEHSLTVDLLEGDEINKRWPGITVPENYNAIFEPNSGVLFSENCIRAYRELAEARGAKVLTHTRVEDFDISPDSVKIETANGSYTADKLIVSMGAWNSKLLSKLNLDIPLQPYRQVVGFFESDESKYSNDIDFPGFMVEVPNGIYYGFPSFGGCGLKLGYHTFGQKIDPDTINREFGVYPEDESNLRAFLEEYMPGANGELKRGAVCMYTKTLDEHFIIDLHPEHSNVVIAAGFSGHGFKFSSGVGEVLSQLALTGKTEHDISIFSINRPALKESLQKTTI

[2] = test system: creatine amidinohydrolase; experiment: Additives to prevent silver inhibition of creatine amidinohydrolase; type: biochemical, Actinobacilus sp.; details: 50 mM additive, pre-incubation
Procedure: Creatine amidinohydrolase (1.0 mg/ml) was prepared in solution with either 50 mM EDT A, 50 mM EGT A, 50 mM mercaptoethanol, 50 mM DTT or 50 mM cysteine with 20 mM Tris, pH 7.5.

[3] = biological target: sarcosine oxidase (Arthrobacter sp., UniProt P40873); details: 1 nM to 1 mM silver nitrate, various incubation times, residual activity assayed in absence of silver
sarcosine oxidase (Arthrobacter sp., UniProt P40873), sequence (P40873 whole entry): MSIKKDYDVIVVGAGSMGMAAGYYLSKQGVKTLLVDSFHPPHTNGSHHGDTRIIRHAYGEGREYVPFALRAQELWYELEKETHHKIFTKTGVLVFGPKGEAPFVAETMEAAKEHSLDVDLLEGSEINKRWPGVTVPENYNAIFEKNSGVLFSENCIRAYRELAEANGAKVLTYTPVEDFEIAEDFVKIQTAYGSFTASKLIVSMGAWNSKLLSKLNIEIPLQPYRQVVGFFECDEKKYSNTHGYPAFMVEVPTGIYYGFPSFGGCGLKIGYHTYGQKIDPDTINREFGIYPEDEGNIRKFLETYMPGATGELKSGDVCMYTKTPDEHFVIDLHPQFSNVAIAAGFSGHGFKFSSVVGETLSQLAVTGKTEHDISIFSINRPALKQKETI
Procedure: Typically, an enzyme solution (0.05 mL) was incubated with a mixture (1.0 mL total) of 95 mM sarcosine, 0.47 mM 4-aminoantipyrene, 2 mM phenol, 0.045% Triton X-100, 50 mM sodium phosphate (pH 8.0) and 5 units/mL of horseradish peroxidase at 37° C. for 10 minutes. The reaction was terminated by addition of 2.0 mL of 0.25% SDS solution and the absorbance at 500 nm was measured. One unit was defined as the amount of enzyme that catalyzed the oxidation of 1). mol of substrate per minute.
Samples were removed periodically and assayed using the end point assay for sarcosine oxidase activity.

[4] = test system: creatine amidinohydrolase; details: 5-100 μM silver nitrate
Procedure: Creatine amidinohydrolase activity was monitored using a colorimetric assay that measures urea formation from the hydrolysis of creatine (Tsuchida and Yoda, Clin. Chem. 29:51-55 (1983)). An enzyme solution (0.1 mL) was incubated with a mixture (0.90 mL) of 100 mM creatine in sodium phosphate buffer (50 mM, pH 7.5) at 37° C. for 10 minutes. The reaction was stopped by adding 2.0 mL of a solution containing Ehrlich's reagent (2.0 g of p-dimethyl aminobenzaldehyde in 100 mL of dimethyl sulfoxide plus 15 mL of concentrated HCl). The solution was incubated for 20 minutes at room temperature and the absorbance at 435 nm was measured. One unit was defined as the amount of enzyme that catalyzes the hydrolysis of 1 μmol of substrate per minute.
Samples were removed periodically and assayed using the end point assay. […] After 10 minutes of incubation, the stop solution (p-dimethyl benzaldehyde solution) was added.

[5] = test system: creatinine amidohydrolase; details: silver nitrate from 1 nM, 5 min to 1 hr incubation
Procedure: An enzyme solution (0.1 mL) was incubated with a mixture (0.90 mL) of 100 mM creatine in mM soditim phosphate (pH 7.5) at 37° C. for 10 minutes. After 10 minutes, the creatine/enzyme mixture (0.1 mL) was added to 0.5 M sodium hydroxide (1.9 mL) and 1% picric acid (1.0 mL). This solution was incubated for 20 minutes at room temperature and the absorbance at 520 nm was measured. One unit was defined as the amount of enzyme which catalyzed the formation of 1 μmol of creatinine per minute.
Samples were removed periodically and assayed using the end point assay.

In the case of `CSCC(=O)O` [(methylthio)acetic acid], the Ki [1] is listed as 2600 µM.
For `O[C@@H](CS)[C@@H](O)CS` [DTT], the “prevention of silver inhibition of creatine amidinohydrolase” value [2] was “effectively prevented”.
In the case of `O=C(O)c1ccc[nH]1` [Pyrrole-2-carboxylic acid], the Ki [1] is listed as 1370 µM.
For `N[C@@H](CS)C(=O)O` [cysteine], the “prevention of silver inhibition of creatine amidinohydrolase” value [2] was “effectively prevented”.
In the case of `OCCS` [mercaptoethanol], the “prevention of silver inhibition of creatine amidinohydrolase” value [2] is reported as “effectively prevented”.
In the case of `CNCC(=O)O` [sarcosine], the Km ([1]; native substrate of sarcosine oxidase) is given as 600 µM.
For `O=[N+]([O-])[O-].[Ag+]` [silver nitrate], the “inhibition of sarcosine oxidase by silver ions” value [3] was “effective irreversible inhibitor”, the “inhibition of creatine amidinohydrolase by silver ions” value [4] was “completely inhibiting enzyme activity” and the “inhibition of creatinine amidohydrolase by silver ions” value [5] was “effective inhibitor of creatinine amidinohydrolase at high concentrations”.
